From patent US20200375987A1, “METALLO-BETA-LACTAMASE INHIBITORS AND METHODS OF USE THEREOF” (priority 2018, published 2020)

What was measured:
VIM-2 = VIM-2 (Escherichia coli, UniProt Q5U7L7); test: Enzyme activity: determination of IC50 (VIM-2); type: biochemical; conditions: read-out: VIM2 IC50
VIM-1 = VIM-1 (Pseudomonas aeruginosa, UniProt A0A0F7KYQ8); test: Enzyme activity: determination of IC50, fluorescence assay with CCF2-FA substrate (VIM-1); type: biochemical; conditions: 30 pM enzyme, 1.25 μM CCF2-FA, 2 hours at 25° C.; read-out: VIM1 IC50
Method: (§1) The Class B enzyme activities were measured in the presence of the test inhibitor in a fluorescence assay against a commercially available substrate consisting of a cephalosporin core linking 7-hydroxycoumarin to fluorescein (CCF2-FA). The enzyme (NDM-1, IMP-1 or VIM-1) and the substrate were diluted in 100 mM KH2PO4 buffer (pH 7) containing 0.005% Tween-20 and 10 μM ZnSO4. In the assay, the final concentration of enzyme was 1 pM, 2 pM and 30 pM for NDM-1, IMP-1 and VIM-1, respectively, and the final concentration of CCF2-FA was 1.25 μM. The test inhibitor was dissolved in dimethylsulfoxide and diluted 1:50 in the assay, resulting in a final concentration range of 20 μM to 0.00063 μM. In a 384-well microplate, the test inhibitor was incubated with the metallo-β-lactamase enzyme and the substrate for 2 hours at 25° C. Fluorescence at 460 nm following excitation at 405 nm was measured. The IC50 value was determined from semi-logarithmic plots of enzyme inhibition versus inhibitor concentration, with a curve generated using a 4-parameter fit.

NDM-1 = NDM-1 (Klebsiella pneumoniae, UniProt C7C422); test: Enzyme activity: determination of IC50, fluorescence assay with CCF2-FA substrate (NDM-1); type: biochemical; conditions: 1 pM enzyme, 1.25 μM CCF2-FA, 2 hours at 25° C.; read-out: NDM1 IC50
Method: as §1

[1] = system: Escherichia coli expressing NDM-1 (CLB30016); test: Antibiotic potentiation activity: synergistic concentration (MITC95) with imipenem; type: cell-based; conditions: imipenem 1 μg/mL; lowest concentration inhibiting 95% of growth; 35° C., 22-24 hours
Method: (§2) The bacterial strains tested included the clinical strains Escherichia coli expressing NDM-1 (CLB30005, CLB30016), Serratia marcescens expressing IMP-1 (CL5741), and Klebsiella pneumoniae expressing VIM-1 (IHMA599644). Inhibitor activity was measured in the presence and absence of imipenem in a 384-well microplate.
(§3) The clinical strains CLB30016, CL5741 and IHMA599644 were grown on trypticase soy agar containing 5% sheep's blood. The bacteria on agar plates were incubated at 35° C. with humidity overnight. The following day, individual colonies from each clinical strain were picked and resuspended in 5 mL saline to attain an OD600 of 0.14, 0.11, 0.15 and 0.13, for CLB30016, CL5741 and IHMA599644, respectively. These were further diluted 1:100 into 1.1× CAMHB and used to inoculate the test wells as described below.
(§4) Imipenem in 10 mM 3-(N-morpholino)propanesulfonic acid (MOPS, pH 7) was stored in single use aliquots at −80° C. […] On the day of the assay, 4 μl of antibiotic was added to 45 μl of bacteria followed by 1 μl of test compound and mixed by pipetting and with an orbital shaker. The concentration of antibiotic used in the assay was 1 μg/mL. Microplates were covered and incubated at 35° C. for 22 hours to 24 hours. At the end of the incubation, absorbance was determined using a spectrophotometer. The synergistic concentration of MBLI was determined by identifying the lowest concentration of test compound in the presence of a given concentration of antibiotic that was required to inhibit 95% of the growth of the bacteria. The results for Examples 1-209 are reported in Table 1, expressed as the concentration of compound that potentiated the action of antibiotic (imipenem) affecting 95% inhibition of bacterial growth (MITC95).

[2] = system: Klebsiella pneumoniae expressing VIM-1 (IHMA599644); test: as above; type: cell-based; conditions: imipenem 1 μg/mL; lowest concentration inhibiting 95% of growth; 35° C., 22-24 hours
Method: as §2, §3, §4

[3] = system: Serratia marcescens expressing IMP-1 (CL5741); test: as above; type: cell-based; conditions: imipenem 1 μg/mL; lowest concentration inhibiting 95% of growth; 35° C., 22-24 hours
Method: as §2, §3, §4

IMP-1 = IMP-1 (Serratia marcescens, UniProt P52699); test: Enzyme activity: determination of IC50, fluorescence assay with CCF2-FA substrate (IMP-1); type: biochemical; conditions: 2 pM enzyme, 1.25 μM CCF2-FA, 2 hours at 25° C.; read-out: IMP1 IC50
Method: as §1

[4] = system: P. aeruginosa MB9799 (efflux mutant, IMP-1); test: Efflux: concentration of MBL inhibitor restoring susceptibility to imipenem (MITC95), efflux− strain; type: cell-based, Pseudomonas aeruginosa; conditions: imipenem at 2 μg/mL in the presence of a class A, C, D serine β-lactamase inhibitor closely related to relebactam
Excerpt: (§5) In order to assess the contribution of efflux to lack of whole cell inhibition of metallo-beta-lactamase inhibitors of formula I, tool strains were constructed. The strain background is Pseudomonas aeruginosa PAO1. A wild-type (MB5919) and an isogenic strain in which multiple efflux pumps have been disrupted genetically were used. The MBL IMP-1, obtained from a clinical isolate was introduced into the strain pair by the following process:
(§6) Plasmid DNA (encoding IMP-1) was extracted from CL 5673 (IMP-1, P. aeruginosa clinical strain) by standard techniques. The plasmid DNA was transformed into parental MB5919 (oprD+, efflux+, inducible AmpC) and MB5890 (oprD+, efflux−, inducible AmpC) isogenic strains by electroporation. These transformed strains were plated onto cation-adjusted Muller-Hinton agar plates containing ceftazidime at 32 μg/mL (MB5919) and 16 μg/mL (MB5890) to select for those cells in which the IMP-1-expressing plasmid was introduced successfully, resulting in resistance to ceftazidime. Agarose-gel electrophoresis of PCR product for IMP-1 from the successful transformants was used to compare to control and to the original strain from which the plasmid was obtained, confirming transfer of the IMP-1 gene (data not shown).
(§7) The strain set was then used as a pair to determine the effect of metallo-β-lactamase inhibitors of Formula Ion the MIC of imipenem and/or ceftazidime. A fixed concentration of antibiotic is included in standard microbroth MIC tests, usually at the CLSI breakpoint concentration. A fixed amount of a class A/C beta-lactamase inhibitor is also included to inhibit the resident Pseudomonas AmpC enzyme. A serial titration of the metallo-β-lactamase inhibitor was included and the concentration of metallo-β-lactamase inhibitor which restores susceptibility of the strain to the included antibiotic was recorded. That concentration of metallo-β-lactamase inhibitor was then compared between the two strains to determine the fold difference between the efflux+(MB9798) and efflux−(MB9799) strains, which indicates n the extent to which the MBLi is subject to efflux.

[5] = system: P. aeruginosa MB9798 (efflux WT, IMP-1); test: Efflux: concentration of MBL inhibitor restoring susceptibility to imipenem (MITC95), efflux+ strain; type: cell-based, Pseudomonas aeruginosa; conditions: imipenem at 2 μg/mL in the presence of a class A, C, D serine β-lactamase inhibitor closely related to relebactam
Excerpt: as §5, §6, §7

NDM-1, sequence (C7C422 29-270, looked up, species assumed): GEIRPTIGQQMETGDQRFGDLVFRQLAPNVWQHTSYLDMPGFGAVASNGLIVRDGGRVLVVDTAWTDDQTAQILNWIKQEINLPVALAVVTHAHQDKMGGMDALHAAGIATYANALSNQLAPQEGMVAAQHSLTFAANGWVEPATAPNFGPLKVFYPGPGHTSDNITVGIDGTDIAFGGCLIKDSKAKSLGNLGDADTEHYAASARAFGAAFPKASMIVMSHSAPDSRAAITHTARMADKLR
IMP-1, sequence (P52699 19-246, looked up, species assumed): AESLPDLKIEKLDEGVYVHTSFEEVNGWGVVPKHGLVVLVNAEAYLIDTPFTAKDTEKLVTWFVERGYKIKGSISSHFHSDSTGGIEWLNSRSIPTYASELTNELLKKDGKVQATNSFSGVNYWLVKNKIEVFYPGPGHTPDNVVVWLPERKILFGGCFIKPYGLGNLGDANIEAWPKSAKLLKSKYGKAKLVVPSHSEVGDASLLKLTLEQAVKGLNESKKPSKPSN

NC[C@@H](O)CS(=O)(=O)c1ccc(N2CCCn3ccnc32)c(-c2nn[nH]n2)c1S(N)(=O)=O [Example 37, (R)-6-((3-amino-2-hydroxypropyl)sulfonyl)-3-(6,7-dihydroimidazo[1,2-a]pyrimidin-8(5H)-yl)-2-(2H-tetrazol-5-yl)benzenesulfonamide]
IC50 (VIM-2): 4.44 nM
IC50 (VIM-1): 2.22 nM
IC50 (NDM-1): 4.31 nM
CLB30016 E.coli MITC95 NDM [1]: 0.20 µM
IHMA599644 K.pneumoniae MITC95 uM VIM [2]: 1.56 µM
CL5741 S.marcescens MITC95 uM IMP [3]: 0.78 µM
IC50 (IMP-1): 5.6 nM
MB9799 MITC95 P. aeruginosa Efflux Mutant [4]: 0.78 µM
MB9798 MITC95 P. aeruginosa Efflux WT [5]: 3.13 µM

C[C@H](CN)NS(=O)(=O)c1ccc(N2CCCn3ccnc32)c(-c2nnn[nH]2)c1S(N)(=O)=O [Example 17, (R)-N1-(1-aminopropan-2-yl)-4-(6,7-dihydroimidazo[1,2-a]pyrimidin-8(5H)-yl)-3-(1H-tetrazol-5-yl)benzene-1,2-disulfonamide]
IC50 (VIM-2): 1.11 nM
IC50 (VIM-1): 0.22 nM
IC50 (NDM-1): 0.36 nM
CLB30016 E.coli MITC95 NDM [1]: 0.78 µM
IHMA599644 K.pneumoniae MITC95 uM VIM [2]: 1.56 µM
CL5741 S.marcescens MITC95 uM IMP [3]: 0.78 µM
IC50 (IMP-1): 2.17 nM
MB9799 MITC95 P. aeruginosa Efflux Mutant [4]: 0.78 µM
MB9798 MITC95 P. aeruginosa Efflux WT [5]: 1.56 µM

NS(=O)(=O)c1c(S(=O)(=O)N[C@@H]2CCNC2)ccc(N2CCn3ccnc3C2)c1-c1nnn[nH]1 [Example 9, (R)-4-(5,6-dihydroimidazo[1,2-a]pyrazin-7(8H)-yl)-N1-(pyrrolidin-3-yl)-3-(1H-tetrazol-5-yl)benzene-12-disulfonamide]
IC50 (VIM-2): 0.49 nM
IC50 (VIM-1): 0.1 nM
IC50 (NDM-1): 0.48 nM
CLB30016 E.coli MITC95 NDM [1]: 0.39 µM
IHMA599644 K.pneumoniae MITC95 uM VIM [2]: 1.56 µM
CL5741 S.marcescens MITC95 uM IMP [3]: 0.20 µM
IC50 (IMP-1): 2.17 nM
MB9799 MITC95 P. aeruginosa Efflux Mutant [4]: 0.78 µM
MB9798 MITC95 P. aeruginosa Efflux WT [5]: 1.56 µM

CCOC(=O)c1cn2c(n1)N(c1ccc(S(=O)(=O)N[C@@H]3CCNC3)c(S(N)(=O)=O)c1-c1nn[nH]n1)CCC2 [Example 5, ethyl (R)-8-(4-(N-(pyrrolidin-3-yl)sulfamoyl)-3-sulfamoyl-2-(2H-tetrazol-5-yl)phenyl)-5,6,7,8-tetrahydroimidazo[1,2-a]pyrimidine-2-carboxylate]
IC50 (VIM-2): 0.55 nM
IC50 (VIM-1): 0.12 nM
IC50 (NDM-1): 0.04 nM
CLB30016 E.coli MITC95 NDM [1]: 12.50 µM
IHMA599644 K.pneumoniae MITC95 uM VIM [2]: 12.50 µM
CL5741 S.marcescens MITC95 uM IMP [3]: 6.25 µM
IC50 (IMP-1): 0.96 nM
MB9799 MITC95 P. aeruginosa Efflux Mutant [4]: 3.13 µM
MB9798 MITC95 P. aeruginosa Efflux WT [5]: 6.25 µM

NC[C@H](CO)NS(=O)(=O)c1ccc(N2CCCn3ccnc32)c(-c2nnn[nH]2)c1S(N)(=O)=O [Example 15, (R)-N1-(1-amino-3-hydroxypropan-2-yl)-4-(6,7-dihydroimidazo[1,2-a]pyrimidin-8(5H)-yl)-3-(1H-tetrazol-5-yl)benzene-1,2-disulfonamide]
IC50 (VIM-2): 2.66 nM
IC50 (VIM-1): 1 nM
IC50 (NDM-1): 2.35 nM
CLB30016 E.coli MITC95 NDM [1]: 0.20 µM
IHMA599644 K.pneumoniae MITC95 uM VIM [2]: 1.56 µM
CL5741 S.marcescens MITC95 uM IMP [3]: 0.39 µM
IC50 (IMP-1): 8.9 nM
MB9799 MITC95 P. aeruginosa Efflux Mutant [4]: 0.78 µM
MB9798 MITC95 P. aeruginosa Efflux WT [5]: 3.13 µM

NS(=O)(=O)c1c(S(=O)(=O)N[C@@H]2CCNC2)ccc(N2CCc3ncccc32)c1-c1nnn[nH]1 [Example 34, 4-(2,3-dihydro-1H-pyrrolo[3,2-b]pyridin-1-yl)-N1-[(3R)-pyrrolidin-3-yl]-3-(1H-tetrazol-5-yl)benzene-1,2-disulfonamide]
IC50 (VIM-2): 0.81 nM
IC50 (VIM-1): 0.25 nM
IC50 (NDM-1): 0.29 nM
CLB30016 E.coli MITC95 NDM [1]: 0.39 µM
IHMA599644 K.pneumoniae MITC95 uM VIM [2]: 3.13 µM
CL5741 S.marcescens MITC95 uM IMP [3]: 1.56 µM
IC50 (IMP-1): 5.21 nM
MB9799 MITC95 P. aeruginosa Efflux Mutant [4]: 1.56 µM
MB9798 MITC95 P. aeruginosa Efflux WT [5]: 12.50 µM

NC[C@@H](O)CNS(=O)(=O)c1ccc(N2CCc3nc(N)[nH]c3C2)c(-c2nn[nH]n2)c1S(N)(=O)=O [Example 3, (R)—N^1-(3-amino-2-hydroxypropyl)-4-(2-amino-3,4,6,7-tetrahydro-5H-imidazo[4,5-c]pyridin-5-yl)-3-(2H-tetrazol-5-yl)benzene-1,2-disulfonamide]
IC50 (VIM-2): 72.8 nM
IC50 (VIM-1): 22.6 nM
IC50 (NDM-1): 2.23 nM
CLB30016 E.coli MITC95 NDM [1]: 0.78 µM
IHMA599644 K.pneumoniae MITC95 uM VIM [2]: 6.25 µM
CL5741 S.marcescens MITC95 uM IMP [3]: 3.13 µM
IC50 (IMP-1): 5.72 nM
MB9799 MITC95 P. aeruginosa Efflux Mutant [4]: 1.56 µM
MB9798 MITC95 P. aeruginosa Efflux WT [5]: 6.25 µM

NC[C@@H](O)CNS(=O)(=O)c1ccc(N2CC[C@@H](CO)n3ccnc32)c(-c2nn[nH]n2)c1S(N)(=O)=O [Example 39, N1-((R)-3-amino-2-hydroxypropyl)-4-((S)-5-(hydroxymethyl)-6,7-dihydroimidazo[1,2-a]pyrimidin-8(5H)-yl)-3-(2H-tetrazol-5-yl)benzene-1,2-disulfonamide]
IC50 (VIM-2): 14.3 nM
IC50 (VIM-1): 1.62 nM
IC50 (NDM-1): 0.89 nM
CLB30016 E.coli MITC95 NDM [1]: 0.29 µM
IHMA599644 K.pneumoniae MITC95 uM VIM [2]: 1.56 µM
CL5741 S.marcescens MITC95 uM IMP [3]: 0.78 µM
IC50 (IMP-1): 6.52 nM
MB9799 MITC95 P. aeruginosa Efflux Mutant [4]: 1.17 µM
MB9798 MITC95 P. aeruginosa Efflux WT [5]: 2.34 µM

Nc1nc2c(s1)CN(c1ccc(S(=O)(=O)N[C@@H]3CCNC3)c(S(N)(=O)=O)c1-c1nnn[nH]1)CC2 [Example 29, 4-(2-amino-6,7-dihydro[1,3]thiazolo[5,4-c]pyridin-5(4H)-yl)-N1-[(3R)-pyrrolidin-3-yl]-3-(1H-tetrazol-5-yl)benzene-1,2-disulfonamide]
IC50 (VIM-2): 32.8 nM
IC50 (VIM-1): 8.27 nM
IC50 (NDM-1): 6.28 nM
CLB30016 E.coli MITC95 NDM [1]: 1.56 µM
IHMA599644 K.pneumoniae MITC95 uM VIM [2]: 12.50 µM
CL5741 S.marcescens MITC95 uM IMP [3]: 1.56 µM
IC50 (IMP-1): 7.11 nM
MB9799 MITC95 P. aeruginosa Efflux Mutant [4]: 0.78 µM
MB9798 MITC95 P. aeruginosa Efflux WT [5]: 25.00 µM
